“Also recorded” adds a separate entry of the source.
Experiments:
VEGF = target: T1, VEGF (Homo sapiens, UniProt P15692); assay: 125I-labeled VEGF association with peptides fixed on ELISA plate, competition; type: binding; conditions: determined from IC50: KD=IC50−[non-labeled Competitor]; fixed peptide 100 ng/well; read-out: dissociation constant (KD) between VEGF and peptide
T1 sequence (P15692 27-191 isoform P15692-4): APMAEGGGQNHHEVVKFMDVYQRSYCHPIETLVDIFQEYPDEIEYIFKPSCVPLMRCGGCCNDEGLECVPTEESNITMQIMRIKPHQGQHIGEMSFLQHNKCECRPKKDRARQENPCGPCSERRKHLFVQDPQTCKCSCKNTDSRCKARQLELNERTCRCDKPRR
Experimental: To verify the postulated mechanism in which the screened peptides might be associated directly with VEGF so as to inhibit VEGF from binding to its receptors present on the surface of vascular endothelial cells, the following experiments were conducted. Each of the hexa-peptides was fixed on a 96-well ELISA plate at a concentration of 100 ng/well in such a manner that a 20% acetic acid solution containing each peptide was dried in air. The plate was treated three times with a phosphate buffered saline containing 0.1% albumin for 3 min each time. A solution of ^125I-labeled VEGF in the same phosphate buffered saline was added to the plate at a concentration of 0.2 ng/well and incubated at 37° C. for 1 hour to associate the labeled VEGF with the peptides. To remove the […] remaining unassociated, the plate washed four times with the same phosphate buffered saline for 3 min per each time, followed by measuring radioactivity with the aid of a γ-counter. As for the non-specific binding, it was determined by incubation in the presence of either a mixture of the labeled VEGF and non-labeled VEGF or a mixture of the fixed peptide and unfixed peptide in a molar ratio of 1:100. This was set as a negative control.
With reference to FIG. 7, radioactivity measured from ^125I-labeled VEGF associated with fixed peptides is plotted versus molar ratios of a competitor, such as non-labeled VEGF or free peptides, to its counterpart. […] The dissociation constant (KD) between VEGF and each peptide was determined using the IC50) value according to the following formula (De Blasi, A. et al., Trends Pharmacol. Sci., 10, 227 (1989)). KD=IC50−[non-labeled Competitor]

VEGF8-109 = target: T2, VEGF8-109 (Homo sapiens, UniProt P15692); assay: Inhibition of labeled VEGF8-109 binding to its receptors; conditions: FIG. 9
T2 construct: made in house; host or cells: E. coli BL21(DE3)pLysS, inclusion bodies
T2 sequence (P15692 214-315): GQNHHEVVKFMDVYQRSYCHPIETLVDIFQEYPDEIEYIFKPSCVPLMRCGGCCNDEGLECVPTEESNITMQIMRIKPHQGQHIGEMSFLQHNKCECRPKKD
Source text: (§1) In order to verify this postulation, Sequence 1 (RRKRRR) was examined for the common binding domain on VEGF because it inhibited the binding of VEGF to its receptors at the highest efficiency. First, appropriate primers were synthesized and used to amplify various cDNAs coding for VEGF165, VEGF121, VEFG8-121, VEGF109, and VEGF8-109 while a human liver cDNA library (Clontech) served as a template. After being inserted to plasmid pRSET A (Invitrogen), the cDNAs were sequenced. The resulting five pRSET A vectors, each having one of the five cDNAs, were introduced into an expression strain (BL21(DE3)pLysS) containing T7 RNA polymerase. […] The purified VEGFs were quantified by use of a protein assay reagent (Bio-Rad) and all found to bind to VEGF receptors and exert growth hormone activity on HUVEC. […] For use, each labeled protein was quantified by ELISA (enzyme-linked immunosorbent assay) using a mouse monoclonal anti-VEGF antibody (R&D systems).
(§2) Each peptide was examined for antagonistic activity against VEGF in the same manner as in Example 2. Referring to FIG. 9, the radioactivity measured from ^125I-labeled VEGF associated with fixed Sequence 1 (RRKRRR) (SEQ ID NO: 1) is plotted in the absence of competitors and in the presence of competitors for various VEGF isomers. […]

[1] = test system: HM7 (human colon carcinoma cell line); assay: Subcutaneous HM7 tumor growth in athymic nude mice; type: in vivo; conditions: after 15 days of subcutaneous injection
Experimental: From the next day, a solution of each peptide in PBS (0.5 μg/100 μl/day) was subcutaneously injected to the mice for 15 days. Sizes of the tumors thus formed were periodically measured while tumor volumes were calculated according to the following formula: Tumor Size=0.5×(Diameter)^2×length

VEGF121 = target: T3, VEGF121 (Homo sapiens, UniProt P15692); assay: Inhibition of labeled VEGF121 binding to its receptors; conditions: heparin-binding domain-deficient isoform, FIG. 9
T3 construct: made in house; host or cells: E. coli BL21(DE3)pLysS, inclusion bodies
T3 sequence (P15692 27-147 isoform P15692-9): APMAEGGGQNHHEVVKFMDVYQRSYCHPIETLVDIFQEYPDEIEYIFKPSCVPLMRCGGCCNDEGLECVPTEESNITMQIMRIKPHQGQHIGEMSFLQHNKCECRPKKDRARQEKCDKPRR
Source text: as §1, §2

rabbit corneal domes = assay: Rabbit corneal dome angiogenesis induced by VEGF; type: in vivo; conditions: VEGF 10 ng with 1 μg peptide, 16 days after operation; listed as Sequence 1
Experimental: To confirm the test results obtained from egg CAM, an experiment was performed using rabbit corneal domes for in vivo angiogenesis testing. New Zealand male rabbits weighing 3 kg (SLC, Japan) were subjected to intramuscular ketamine anesthesia (44 mg/kg), followed by dissecting the corneal domes to a length of 3 mm by use of an operating knife (Bard-Parker—#11). […] 16 days after the operation, angiogenesis was obviously observed and photographs were taken of blood vessels newly formed in the corneal dome (Nikon, FS-2, Japan).

Compound	Kd (VEGF) [µM]	inhibition of binding of VEGF8-109 to its receptors (VEGF8-109)	effect on tumor size / growth of human colon carcinoma cells in mice [1]	decrease of tumor size compared to the control (PBS) ([1]; 0.5 μg/100 μl/day)	inhibition of binding of labeled VEGF121 to its receptors (VEGF121)	VEGF-induced angiogenesis in the rabbit corneal dome (rabbit corneal domes)
H-RRKRRR-NH2 [compound 8, NH2-Arg-Arg-Lys-Arg-Arg-Arg-CONH2]	5	not inhibited	effectively inhibits the growth of human colon carcinoma cells in mice	about 28%	inhibited	completely inhibited; also recorded: anti-angiogenic effect
H-RKKRKR-NH2 [compound 1, NH2-Arg-Lys-Lys-Arg-Lys-Arg-CONH2]	2					
N=C(N)NCCC[C@H](NC(=O)[C@H](CCCNC(=N)N)NC(=O)[C@H](CCCNC(=N)N)NC(=O)[C@H](CCCNC(=N)N)NC(=O)[C@H](CCCNC(=N)N)NC(=O)[C@@H](N)CCCNC(=N)N)C(N)=O [compound 11, NH2-Arg-Arg-Arg-Arg-Arg-Arg-CONH2]	22					
